{
  "source": "patent US20220282325A1",
  "about": "“METHYLATION ASSAYS AND USES THEREOF” (The General Hospital Corporation, priority 2019, published 2022)",
  "key": {"HL-60 cells": {"test_system": "HL-60 cells", "assay": "XRBS DNA methylation profiling of decitabine-treated cells", "format": "cell-based, human", "conditions": "HL-60, 300 nM decitabine, five days", "experimental": "(§1) In order to detect differential methylation across an isogenic system, cell lines were treated with 300 nM decitabine, which inhibits DNA methyltransferase enzymes through covalent entrapment on DNA (FIGS. 22A and 22B). HL-60 and OCI-AML3 were treated, as these had intermediate global methylation levels among the four cell lines examined, and profiled DNA methylation using expanded representation bisulfite sequencing (XRBS) (FIG. 22C).\n(§2) For expanded representation bisulfite sequencing (XRBS) profiles, HL-60 and OCI-AML3 cells were treated with 300 nM decitabine in 6 well plates. Cells were harvested after 5 days and gDNA was extracted using Qiagen DNA Mini Blood Kit (51104). 10 ng of gDNA were used for each library preparation.\n(§3) Before alignment, primer dimers were filtered using Cutadapt version 2.7 and the following parameters:--discard -a GCTCTTCCGATCT. Short read pairs were trimmed using TrimGalore version 0.6.5 and the following parameters: --paired --illumina --nextseq 20. Trimmed sequencing reads were then aligned to an in-silico bisulfate-converted reference genome (hg38 and mm10) using methylCtools version 1.0.0 and bwa mem version 0.7.17. […] Putative PCR duplicates were removed by considering the outer mapping position of both paired-end reads, as well as the random hexamer sequence that was trimmed prior to alignment and functioned as a unique molecular identifier (UMI). For library complexity analysis, alignments were downsampled prior to this step. DNA methylation calling was performed using methylCtools bcall and the --trimPE parameter. DNA methylation values, which are incorporated herein by reference for all purposes, were deposited on GEO (GSE149954, token: azujmeaezxqdxgr).\n(§4) All downstream analyses were performed in R (version 3.6.2), making extensive use of the data.table and GenomicRanges packages. For many analyses, average DNA methylation values within genomic regions were used. Regions included CpG islands, promoters (1 kb up- and downstream of all transcription start sites of protein-coding genes), enhancers and CTCF binding sites (Encyclopedia of DNA Elements (ENCODE) narrowPeak files), and genomic 100 kb-windows. Average methylation values within these regions were calculated by summarizing calls for methylated and unmethylated CpGs across the entire region, and then calculating a single beta-value. For 100 kb-windows, CpGs within islands were not included. Minimum coverage thresholds were applied as indicated. Similarly, average methylation values were calculated for each genomic bin when visualized as heatmaps (genomic regions were separated in 100 equally-sized bins). Differential DNA methylation analysis was performed by sorting regions according to their difference in average methylation values (for enhancers and CTCF binding sites) or by applying a threshold (0.5) on the difference between the average methylation values of one cell line to the average of the other three cell lines (for promoters)."}, "OCI-AML3 cells": {"test_system": "OCI-AML3 cells", "assay": "XRBS DNA methylation profiling of decitabine-treated cells", "format": "cell-based, human", "conditions": "OCI-AML3, 300 nM decitabine, five days, vs DMSO", "experimental": "as §1, §2, §3, §4"}},
  "data": [
    {"smiles": "Nc1ncn([C@H]2C[C@H](O)[C@@H](CO)O2)c(=O)n1", "note": "[decitabine]", "values": [
      {"measurement": "decrease of DNA methylation levels in CpG islands", "setting": "HL-60 cells; vs DMSO", "value": 9.5, "unit": "%"},
      {"measurement": "decrease of DNA methylation levels in non-island CpGs", "setting": "HL-60 cells; vs DMSO", "value": 20.2, "unit": "%"},
      {"measurement": "reduction of average global methylation levels", "setting": "HL-60 cells; vs DMSO", "value": 19.1, "unit": "%"},
      {"measurement": "average methylation of non-island CpGs after decitabine treatment", "setting": "HL-60 cells; DMSO control 68.1%", "value": 54.3, "unit": "%"},
      {"measurement": "decrease of DNA methylation levels in CpG islands", "setting": "OCI-AML3 cells", "value": 11.2, "unit": "%"},
      {"measurement": "decrease of DNA methylation levels in non-island CpGs", "setting": "OCI-AML3 cells", "value": 14.0, "unit": "%"},
      {"measurement": "reduction of average global methylation levels", "setting": "OCI-AML3 cells", "value": 13.7, "unit": "%"}
    ]}
  ]
}
